This note sets out measurements from ChEMBL document CHEMBL1201862, “PubChem BioAssay data set” (2004).

Assay [1] in a line: HEp-2 cell cytotoxicity, dose response, cytotoxicity control for RSV inhibitor project, HTS (AID 2410). The assay is classed as functional. The following applies: human respiratory syncytial virus.
Assay [2] relates to Vero. The assay is described as follows: cells. It counts as functional, cell-based. The following applies: Chlorocebus sabaeus.
The test system of assay [3] is Vero. The assay is described as follows: West Nile virus antiviral activity, cell-based, CPE readout (AID 1621). The following applies: Chlorocebus sabaeus. It counts as functional.
Assay [4] deals with Vero. The assay is described as follows: host cell cytotoxicity of antiviral hits, dose response, cytotoxicity control for West Nile virus antiviral project, secondary assay (AID 1650). It counts as functional. The following applies: Chlorocebus sabaeus.
The target of assay [5] is Diphosphomevalonate decarboxylase (Streptococcus pneumoniae serotype 2 (strain D39 / NCTC 7466), UniProt Q9FD53). The assay is described as follows: S. pneumoniae DPM-DC inhibition retest, confirmation, biochemical, cuvette format, coupled NADH fluorescence (AID 1028). It counts as functional.
Sequence of Diphosphomevalonate decarboxylase (Q9FD53 whole entry): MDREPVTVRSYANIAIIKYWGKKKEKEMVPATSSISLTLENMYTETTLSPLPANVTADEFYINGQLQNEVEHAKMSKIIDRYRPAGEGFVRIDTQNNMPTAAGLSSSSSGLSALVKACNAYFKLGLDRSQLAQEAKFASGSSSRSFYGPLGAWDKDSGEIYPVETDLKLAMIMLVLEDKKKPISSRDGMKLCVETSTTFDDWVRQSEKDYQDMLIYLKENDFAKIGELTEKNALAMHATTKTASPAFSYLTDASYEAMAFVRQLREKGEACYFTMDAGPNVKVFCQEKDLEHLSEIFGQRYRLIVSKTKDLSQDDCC
Assay [6] addresses DNA repair and recombination protein RAD54-like (Homo sapiens, UniProt Q92698). The experiment in a line: inhibitors of human RAD54 branch migration, confirmation, biochemical, fluorescence, cherry-picked samples, dose series (AID 651657). It counts as functional.
A short description of assay [7]: inhibitors of intracellular T. cruzi replication, confirmation, NIH3T3 host cells, beta-gal luminescence (AID 2044).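 Also: intracellular parasites grown in NIH/3T3 mouse fibroblasts as host cells; luminescent beta-galactosidase reporter signal from transgenic T. cruzi replicating inside host cells; inhibitors lower the luminescence signal.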 The assay is classed as functional, cell-based.
Assay [8] is described as follows: cytotoxicity toward NIH3T3 fibroblasts, dose response, counter-screen, cell-based, ATP luminescence, mouse fibroblasts (AID 2010).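 Also: cells exposed to compound for about 90 hours before reading.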 It counts as functional.
Assay [9] can be described thus: Luminescence Cell-Based Dose Retest to Confirm Inhibitors of Cancer Stem Cells. [Related pubchem assays (depositor defined):AID2717, AID2721]. The assay is classed as functional. The following applies: Homo sapiens.
Assay [10] is described as follows: Luminescent dose response cell-based high throughput screening assay for inhibitors of the Janus kinase 2 mutant JAK2V617F. [Related pubchem assays: 1446 (Primary screen.), 1521 (Confirmation assay.), 1486 (Counter screen.)]. It counts as functional. Background: A counterscreen serves to expose hits that act by an unwanted route or on another target.
The target of assay [11] is T1, Mannose-6-phosphate isomerase (Homo sapiens, UniProt P34949).
T1 sequence (P34949 whole entry): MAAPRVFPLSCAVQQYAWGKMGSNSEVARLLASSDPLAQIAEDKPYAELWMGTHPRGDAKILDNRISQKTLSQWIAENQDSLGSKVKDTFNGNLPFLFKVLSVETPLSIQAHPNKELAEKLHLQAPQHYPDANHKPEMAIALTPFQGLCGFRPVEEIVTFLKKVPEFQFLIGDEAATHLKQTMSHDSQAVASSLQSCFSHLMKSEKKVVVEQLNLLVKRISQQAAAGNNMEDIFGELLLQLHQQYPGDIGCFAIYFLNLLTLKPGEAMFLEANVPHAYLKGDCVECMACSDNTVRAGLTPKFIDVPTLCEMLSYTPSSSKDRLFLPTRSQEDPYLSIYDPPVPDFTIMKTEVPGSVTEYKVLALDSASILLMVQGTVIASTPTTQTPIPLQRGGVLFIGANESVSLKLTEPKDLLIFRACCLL
The experiment in a line: human PMI inhibitors, high substrate, primary screen, biochemical, fluorescence intensity, high mannose 6-phosphate (AID 1220).

The target of a further assay is T2, Protein RecA (Mycobacterium tuberculosis, UniProt P9WHJ3).
T2 sequence (P9WHJ3 whole entry): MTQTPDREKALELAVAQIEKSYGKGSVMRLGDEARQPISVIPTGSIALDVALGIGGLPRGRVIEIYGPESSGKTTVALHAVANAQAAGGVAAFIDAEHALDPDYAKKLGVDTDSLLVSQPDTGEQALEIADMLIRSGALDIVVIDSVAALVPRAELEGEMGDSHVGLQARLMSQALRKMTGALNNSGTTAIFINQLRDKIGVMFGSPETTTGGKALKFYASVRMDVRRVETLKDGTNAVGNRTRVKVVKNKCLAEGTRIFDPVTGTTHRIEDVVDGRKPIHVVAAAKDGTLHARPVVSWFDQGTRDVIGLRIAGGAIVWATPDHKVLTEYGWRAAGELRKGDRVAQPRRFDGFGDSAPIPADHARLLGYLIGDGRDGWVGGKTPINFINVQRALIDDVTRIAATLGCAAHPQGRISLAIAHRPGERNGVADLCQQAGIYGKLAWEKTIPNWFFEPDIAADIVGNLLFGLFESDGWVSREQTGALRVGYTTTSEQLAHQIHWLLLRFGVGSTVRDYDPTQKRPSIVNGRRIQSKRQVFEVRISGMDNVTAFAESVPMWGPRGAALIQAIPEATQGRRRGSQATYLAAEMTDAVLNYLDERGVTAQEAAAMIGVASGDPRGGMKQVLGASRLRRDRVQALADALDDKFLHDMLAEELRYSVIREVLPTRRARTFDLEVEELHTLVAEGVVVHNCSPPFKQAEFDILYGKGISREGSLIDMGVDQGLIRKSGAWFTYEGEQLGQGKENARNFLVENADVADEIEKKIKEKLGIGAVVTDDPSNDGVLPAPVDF
The experiment in a line: Fluorescence Cell-Free Homogeneous Dose Retest to Identify Inhibitors of RecA-Intein Splicing Activity. [Related pubchem assays (depositor defined):AID2097, AID2223, AID489010, AID492950]. The assay is classed as functional.

Assay [12] can be described thus: M. tuberculosis growth inhibition, HTS (AID 449762). The assay is classed as functional.
For assay [13], the target named is T3, Replicative DNA helicase DnaB (Mycobacterium tuberculosis, UniProt P9WMR3).
T3 sequence (P9WMR3 whole entry): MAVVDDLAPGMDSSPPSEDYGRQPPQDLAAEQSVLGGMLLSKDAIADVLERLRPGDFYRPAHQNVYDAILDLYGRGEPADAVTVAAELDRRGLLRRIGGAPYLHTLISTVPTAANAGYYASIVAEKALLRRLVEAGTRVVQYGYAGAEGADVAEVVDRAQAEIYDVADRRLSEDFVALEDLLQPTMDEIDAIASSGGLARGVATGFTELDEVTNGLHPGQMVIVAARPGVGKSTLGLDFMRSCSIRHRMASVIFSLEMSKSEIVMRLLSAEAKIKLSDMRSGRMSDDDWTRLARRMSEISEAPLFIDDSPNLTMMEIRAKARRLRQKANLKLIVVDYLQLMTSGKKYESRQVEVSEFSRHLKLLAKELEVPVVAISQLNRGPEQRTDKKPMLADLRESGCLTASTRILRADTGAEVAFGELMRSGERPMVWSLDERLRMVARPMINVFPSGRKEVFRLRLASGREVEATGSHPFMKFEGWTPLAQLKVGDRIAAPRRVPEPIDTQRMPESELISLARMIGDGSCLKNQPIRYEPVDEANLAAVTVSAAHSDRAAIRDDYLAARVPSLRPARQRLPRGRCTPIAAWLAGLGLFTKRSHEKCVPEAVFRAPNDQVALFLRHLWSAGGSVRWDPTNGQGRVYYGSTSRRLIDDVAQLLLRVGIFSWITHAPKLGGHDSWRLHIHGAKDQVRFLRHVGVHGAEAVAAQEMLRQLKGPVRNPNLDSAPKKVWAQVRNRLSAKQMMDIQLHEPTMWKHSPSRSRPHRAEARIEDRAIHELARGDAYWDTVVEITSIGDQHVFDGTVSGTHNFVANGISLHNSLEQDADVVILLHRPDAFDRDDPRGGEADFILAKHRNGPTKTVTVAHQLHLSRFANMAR
The experiment in a line: DnaB intein splicing inhibitors, dose response, biochemical, cell-free fluorescence (AID 449749). The assay is classed as functional.

Assay [14] is described as follows: Luminescence Cell-Based Dose Confirmation HTS to Identify Inhibitors of Platelet Dense Granule Release. [Related pubchem assays: 1663 (Primary HTS), 1678 (Summary of Project)]. It counts as functional.
A short description of assay [15]: Fluorescence Cell-Based Dose Response to Identify Inhibitors of Thrombin Receptor-Activating Peptide SFLLRN-Mediated P-Selectin Induction on Platelets. [Related pubchem assays: 1663 (Primary HTS), 1889 (retest at dose ), 1891 (counterscreen), 1678 (Project Summary)]. The assay is classed as functional.
Assay [16] addresses Luciferin 4-monooxygenase (Photinus pyralis, UniProt P08659). The assay is described as follows: firefly luciferase enzyme inhibitors, dose response, biochemical, luminescence (AID 1891).
Assay [17] has as its target T4, High affinity choline transporter 1 (Homo sapiens, UniProt Q9GZV3).
T4 sequence (Q9GZV3 whole entry): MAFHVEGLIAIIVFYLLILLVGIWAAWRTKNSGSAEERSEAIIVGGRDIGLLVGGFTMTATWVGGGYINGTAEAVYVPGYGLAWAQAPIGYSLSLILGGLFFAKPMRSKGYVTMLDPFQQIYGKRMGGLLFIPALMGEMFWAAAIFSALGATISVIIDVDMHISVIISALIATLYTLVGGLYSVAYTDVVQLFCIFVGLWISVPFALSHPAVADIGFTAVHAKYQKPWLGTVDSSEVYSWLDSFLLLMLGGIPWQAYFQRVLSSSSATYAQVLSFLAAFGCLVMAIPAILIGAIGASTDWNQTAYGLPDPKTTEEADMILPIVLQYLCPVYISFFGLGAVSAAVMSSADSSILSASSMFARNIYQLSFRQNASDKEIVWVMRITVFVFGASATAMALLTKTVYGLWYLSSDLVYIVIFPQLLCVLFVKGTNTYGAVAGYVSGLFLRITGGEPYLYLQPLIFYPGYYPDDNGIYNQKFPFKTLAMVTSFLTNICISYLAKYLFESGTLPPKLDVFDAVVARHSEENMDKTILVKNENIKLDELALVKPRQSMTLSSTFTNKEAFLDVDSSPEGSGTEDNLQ
The assay is described as follows: CHT inhibitors, dose response, cell-based, 5-point CRC, membrane potential dye (AID 504840). It counts as functional.

In a further assay the target is Ephrin type-A receptor 4 (Mus musculus, UniProt Q03137). The experiment in a line: inhibitors of EphA4 binding to KYL peptide, primary screen, biochemical, colorimetric, mouse EphA4 (AID 689). It counts as functional.
Sequence of Ephrin type-A receptor 4 (Q03137 whole entry): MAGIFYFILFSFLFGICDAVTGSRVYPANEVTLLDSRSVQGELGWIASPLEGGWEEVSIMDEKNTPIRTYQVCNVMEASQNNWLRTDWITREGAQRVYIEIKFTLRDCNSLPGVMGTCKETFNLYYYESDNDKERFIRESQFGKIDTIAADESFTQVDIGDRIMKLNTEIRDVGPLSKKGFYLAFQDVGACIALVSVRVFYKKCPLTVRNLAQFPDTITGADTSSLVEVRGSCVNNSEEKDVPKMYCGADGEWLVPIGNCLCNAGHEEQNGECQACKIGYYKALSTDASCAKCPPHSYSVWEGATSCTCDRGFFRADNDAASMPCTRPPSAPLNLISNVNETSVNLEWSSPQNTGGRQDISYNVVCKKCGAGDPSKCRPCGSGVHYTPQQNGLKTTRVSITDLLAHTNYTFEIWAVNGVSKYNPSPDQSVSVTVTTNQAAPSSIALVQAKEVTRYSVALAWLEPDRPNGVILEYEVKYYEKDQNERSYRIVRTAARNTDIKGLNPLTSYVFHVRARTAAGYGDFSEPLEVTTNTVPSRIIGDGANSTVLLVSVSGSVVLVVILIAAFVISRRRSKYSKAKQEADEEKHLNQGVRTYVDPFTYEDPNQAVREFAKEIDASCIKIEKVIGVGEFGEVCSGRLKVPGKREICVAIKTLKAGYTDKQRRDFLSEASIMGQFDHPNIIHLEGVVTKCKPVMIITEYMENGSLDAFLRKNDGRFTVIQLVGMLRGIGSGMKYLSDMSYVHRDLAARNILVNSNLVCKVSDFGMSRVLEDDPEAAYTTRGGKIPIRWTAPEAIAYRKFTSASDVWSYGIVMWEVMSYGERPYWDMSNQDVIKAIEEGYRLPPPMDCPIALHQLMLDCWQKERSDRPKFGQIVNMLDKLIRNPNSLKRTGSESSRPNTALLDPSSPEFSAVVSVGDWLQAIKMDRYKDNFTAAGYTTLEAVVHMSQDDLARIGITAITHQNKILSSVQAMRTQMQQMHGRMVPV

Calls of active or inactive are those of the source. Some results are limits rather than exact numbers.

Sequence of DNA repair and recombination protein RAD54-like (Q92698 whole entry): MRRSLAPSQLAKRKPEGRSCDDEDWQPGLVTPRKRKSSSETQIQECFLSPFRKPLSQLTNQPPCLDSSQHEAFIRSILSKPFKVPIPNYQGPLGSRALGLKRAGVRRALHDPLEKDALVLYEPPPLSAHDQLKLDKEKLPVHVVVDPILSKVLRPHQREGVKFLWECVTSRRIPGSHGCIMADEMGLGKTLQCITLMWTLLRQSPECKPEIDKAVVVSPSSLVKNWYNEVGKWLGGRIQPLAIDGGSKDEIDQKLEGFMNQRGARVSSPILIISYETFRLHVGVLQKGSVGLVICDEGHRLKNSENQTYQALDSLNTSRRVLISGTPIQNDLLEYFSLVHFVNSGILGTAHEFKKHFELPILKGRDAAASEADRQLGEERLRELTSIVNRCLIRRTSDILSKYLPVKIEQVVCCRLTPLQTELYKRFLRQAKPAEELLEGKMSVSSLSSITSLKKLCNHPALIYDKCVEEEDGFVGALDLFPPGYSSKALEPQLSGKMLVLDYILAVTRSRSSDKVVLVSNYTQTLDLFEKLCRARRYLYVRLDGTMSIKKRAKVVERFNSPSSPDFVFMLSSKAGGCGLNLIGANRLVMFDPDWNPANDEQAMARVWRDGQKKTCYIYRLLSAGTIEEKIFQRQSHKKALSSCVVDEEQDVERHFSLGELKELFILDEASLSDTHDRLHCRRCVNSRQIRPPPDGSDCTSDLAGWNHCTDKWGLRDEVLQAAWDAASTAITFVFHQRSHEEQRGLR
Sequence of Luciferin 4-monooxygenase (P08659 whole entry): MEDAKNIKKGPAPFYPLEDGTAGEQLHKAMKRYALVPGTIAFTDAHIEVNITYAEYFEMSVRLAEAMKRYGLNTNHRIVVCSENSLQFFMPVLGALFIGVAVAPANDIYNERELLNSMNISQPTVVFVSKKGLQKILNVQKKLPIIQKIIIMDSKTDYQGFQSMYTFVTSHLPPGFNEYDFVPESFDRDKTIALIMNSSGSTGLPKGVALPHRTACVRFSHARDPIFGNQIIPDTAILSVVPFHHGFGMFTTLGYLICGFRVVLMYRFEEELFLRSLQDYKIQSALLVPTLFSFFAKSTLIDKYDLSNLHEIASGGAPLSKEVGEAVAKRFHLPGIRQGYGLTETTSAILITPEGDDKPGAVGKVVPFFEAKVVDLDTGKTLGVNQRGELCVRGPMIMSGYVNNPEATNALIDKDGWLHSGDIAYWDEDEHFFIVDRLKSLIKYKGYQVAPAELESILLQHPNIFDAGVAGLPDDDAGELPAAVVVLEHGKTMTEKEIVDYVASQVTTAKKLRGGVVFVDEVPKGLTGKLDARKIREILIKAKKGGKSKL

Broadly, the CC50 is the concentration at which the toxic effect on the cells reaches its halfway point. One may read the IC50 as the point on the concentration scale where inhibition reaches its midpoint. With `COC(=O)c1c(-c2ccccc2)csc1NC(=O)c1c(-c2ccccc2)noc1C`, the CC50 in assay [1] is 6.35 µM (active); with Vero [4], 10.1 µM (active). Also, the IC50 in the assay with Vero [2] was 0.8 µM (active); in the assay “cells” it was 3.07 µM (active); with Vero [3], 41.3 µM (active).
Regarding `O=C(NCc1ccco1)c1ccc(-n2sc3ccccc3c2=O)cc1`, the IC50 in assay [5] is 4.68 µM (active).
One may read the AC50 as the midpoint of the concentration-response curve, whichever way the signal moves. The EC50 is the concentration at which the effect is half-maximal. On to `CC1CCCN(CCCNC(=O)c2cc3c(Cl)nc4ccccc4c3s2)C1` (stereo not drawn), for which the results for the AC50 in assay [6] and in assay [9] were 9.98 µM (active) and 8.01 µM (active), respectively. The figures for the EC50 in assay [7] and in assay [8] were 1.4 µM (active) and 6.28 µM (active), respectively. For the same compound, the IC50 in [10] was 0.934 µM (active).
For the compound `Cc1cccc(CSc2nc3c(c(-c4cccs4)c2C#N)CN(C)CC3)c1`, the IC50 in [11] was > 50 µM (not active); in [12] it was > 100 µM (active). Further, the values for the EC50 (in assay [7]; in [8]; on Protein RecA) were 0.101 µM (active), > 60 µM (not active) and 0.503 µM (active), respectively. Also, the AC50 in [13] is 16.5 µM (active).
`COC(=O)C(C)Sc1nc2c(c(=O)[nH]c(=O)n2C)n1CCCc1ccccc1` (stereo not drawn): the EC50 in [14] is 6.52 µM (active); in [15], < 30 µM (active); in assay [16], > 112 µM (not active). The IC50 in assay [17] is 12.6 µM (active).
Regarding `CCn1c(SCc2nc(-c3ccccc3)no2)nnc1-c1cccs1`, the IC50 at Ephrin type-A receptor 4 was > 100 µM (not active); in assay [17], 15.1 µM (active).
